# Experiments:
# [1] = test system: N. cyriacigeorgica complex NEQAS 3295; test: Bacterial susceptibility testing (MIC, broth microdilution); type: cell-based; settings: Nocardia cyriacigeorgica
# Experimental: (§1) Minimal inhibitory concentrations (MIC) against a variety of gram-negative and gram-positive bacterial strains were determined by the broth microdilution method in accordance with the Clinical and Laboratory Standards Institute (CLSI) guidelines. In brief, organism suspensions were adjusted to a 0.5 McFarland standard to yield a final inoculum between 3×10^5 and 7×10^5 colony-forming units (CFU)/mL. Drug dilutions and inocula were made in sterile, cation adjusted Mueller-Hinton Broth (Beckton Dickinson). An inoculum volume of 100 μL was added to wells containing 100 μL. of broth with 2-fold serial dilutions of drug. All inoculated microdilution trays were incubated in ambient air at 35° C. for 18-24 h. Following incubation, the lowest concentration of the drug that prevented visible growth (OD600 nm<0.05) was recorded as the MIC. Performance of the assay was monitored by the use of laboratory quality-control strains and levofloxacin, a compound with a defined MIC spectrum, in accordance with CLSI guidelines.
# [2] = Oral solution formulation excipient screening (solubility estimated by HPLC); type: physicochemical
# Text: The solubility of Compound A was estimated by HPLC in multiple potential excipients for a solution formulation (Table 4).
# [3] = test system: gram-negative and gram-positive bacterial strains; test: Bacterial susceptibility testing, whole panel; type: cell-based
# Experimental: as §1
smiles,measurement,setting,value
C[C@H]1COc2c(N3CCN(C)CC3)c(F)cc3c(=O)c(C(=O)O)cn1c23 [Levofloxacin],MIC,[1],8 µg/mL
"N#CC1CN(C[C@@H](Cc2ncnc(O)c2O)c2ccc(C#Cc3ccc(CN4CCOCC4)cc3)cc2)C1 [Compound A, (S)-1-(3-(5,6-dihydroxypyrimidin-4-yl)-2-(4-((4-(morpholinomethyl)phenyl)ethynyl)phenyl)propyl)azetidine-3-carbonitrile]",solubility,"[2]; Capmul MCM, oil or lipid",330 µg/mL
same,solubility,"[2]; Cremophor RH40, aqueous with cosolvent or surfactant or cyclodextrin",900 µg/mL
same,solubility,"[2]; HCl solution (pH 0.5), pH 0.5, simulated gastric fluid",≥ 45000 µg/mL
same,solubility,"[2]; Labrafil M 1944, oil or lipid",120 µg/mL
same,solubility,"[2]; Lactic acid, organic solvent or mixture",≥ 20000 µg/mL
same,solubility,"[2]; Maisine CC, oil or lipid",130 µg/mL
same,solubility,"[2]; Oleic acid, oil or lipid",480 µg/mL
same,solubility,"[2]; Peppermint oil, oil or lipid",50 µg/mL
same,solubility,"[2]; Polysorbate 20, aqueous with cosolvent or surfactant or cyclodextrin",850 µg/mL
same,solubility,"[2]; Polysorbate 80, aqueous with cosolvent or surfactant or cyclodextrin",620 µg/mL
same,solubility,"[2]; Propylene glycol (pH 0.5), pH 0.5, organic solvent or mixture",≥ 45000 µg/mL
same,solubility,"[2]; Propylene glycol, organic solvent or mixture",< 10000 µg/mL
same,solubility,"[2]; SBEβCD (30% w/v), pH 0.5, pH 0.5, aqueous with cosolvent or surfactant or cyclodextrin",≥ 45000 µg/mL
same,solubility,"[2]; SBEβCD (30% w/v), pH 3, pH 3, aqueous with cosolvent or surfactant or cyclodextrin",< 10000 µg/mL
same,solubility,"[2]; Solutol HS 15, aqueous with cosolvent or surfactant or cyclodextrin",630 µg/mL
same,solubility,"[2]; Soybean oil, oil or lipid",20 µg/mL
same,solubility,"[2]; Transcutol (pH 0.5), pH 0.5, organic solvent or mixture",≥ 10000 µg/mL
same,solubility,"[2]; Transcutol, organic solvent or mixture",< 10000 µg/mL
same,solubility,"[2]; Vitamin E TPGS, aqueous with cosolvent or surfactant or cyclodextrin",< 10000 µg/mL
same,solubility,"[2]; aqueous with cosolvent or surfactant or cyclodextrin, Gelucire 44/14 (surfactant)",< 10000 µg/mL
same,"solubility in excipients, overall","[2]; most excipients, acidifying the excipients led to higher solubility",Low solubility
same,solubility,"[2]; organic solvent or mixture, PEG400 (co-solvent)",< 10000 µg/mL
same,selectivity for gram-negative bacteria over gram-positive bacteria,[3]; from MIC panel of Table 1,high selectivity
same,MIC,[1],> 64 µg/mL
"C[C@@H](O)[C@H]1C(=O)N2C(C(=O)O)=C(S[C@@H]3CN[C@H](C(=O)N(C)C)C3)[C@H](C)[C@H]12 [Meropenem, reference compound]",activity against gram-positive bacteria,[3]; various strains of gram-positive bacteria,do have activity
same,MIC,[1],> 1 µg/mL

# From patent US20230201214A1, “LPXC INHIBITOR, FORMULATIONS, AND USES THEREOF” (priority 2020, published 2023)
